Reference: publication PMC5978685, “Design, Synthesis, and Evaluation of Novel Immunomodulatory Small Molecules Targeting the CD40–CD154 Costimulatory Protein-Protein Interaction” (Molecules : A Journal of Synthetic Chemistry and Natural …, 2018)

Experiments:
HEK Blue cells = assay: MTS cytotoxicity assay in HEK Blue cells; type: cell-based; details: LC50 (MTS) / NF-κB IC50 in sensor cells
Text: (§1) As further confirmation of the inhibitory activity of our compounds, a cell-based assay was used with sensor cells (HEK Blue CD40) containing a secreted embryonic alkaline phosphatase (SEAP) reporter gene under the control of a promoter fused to a NF-κB binding site and transfected with CD40. […] For all tested compounds, the corresponding IC50 values are higher than those determined in the cell-free binding inhibition assay (Table 1) representing a loss of activity which is likely due to non-specific binding on account of the presence of proteins and cells in the assay, as well as hydrophobicity-related problems. Cytotoxicities were also evaluated in these same cells and at the same concentrations using a standard MTS assay to ensure that effects are present at non-toxic concentration levels.
(§2) For the MTS assay, HEK Blue cells were cultured and prepared in the same manner as in the CD40 sensor assay. Then cells were added to a 96-well microtiter plate at a density of 50,000 cells/well in the absence or presence of various concentrations of compounds diluted in the same media, without the addition of CD154. The plate was incubated at 37 °C for 24 h. 20 µL per well of MTS, 3-(4,5-dimethylthiazol-2-yl)-5-(3-carboxymethoxyphenyl)-2-(4-sulfophenyl)-2H-tetrazolium, (Promega, Madison, WI, USA) was added to the culture after treatments, and cells were incubated at 37 °C for 4 h. Formazan levels were measured using a plate reader at 490 nm.
(§3) All binding inhibition and cell assays were tested in duplicate or triplicate per plates, and assays were performed as at least three independent experiments. As before, binding and cytotoxicity data were converted to percent inhibition and fitted with standard log inhibitor vs. normalized response models using nonlinear regression in GraphPad Prism (GraphPad, La Jolla, CA, USA) to establish half-maximal (median) inhibitory concentration (IC50) or median lethal concentration (LC50) values. Cell assay data were fitted with a similar model that also allowed for a variable slope using the log inhibitor vs. normalized response (variable slope) model from Prism with a Hill slope (n) shared across all compounds. Cell assays and draining lymph node data were analyzed by one-way repeated-measures analysis of variance (ANOVA) followed by Dunnett’s multiple comparison test as a post hoc test for individual differences using GraphPad Prism and a significance level of p < 0.05 for all comparisons.

[1] = MTS cytotoxicity assay in HEK Blue cells; type: cell-based; details: human, HEK Blue CD40 sensor cells; HEK Blue cells, 24 h; read-out: LC50 (cytotoxicity, MTS)
Text: as §1, §2, §3

In the case of `O=C(Nc1ccc(-c2ccc(C(=O)Nc3cccc4cccc(S(=O)(=O)O)c34)cc2)nc1)c1ccc([N+](=O)[O-])cc1` [Compound 18, 8-(4-(5-(4-Nitrobenzamido)pyridin-2-yl)benzamido)naphthalene-1-sulfonic acid], the “therapeutic index, TI = LC50/IC50” value (HEK Blue cells) is reported as 15 and the CC50 at 24 h [1] is reported as 131 µM.
